What follows are compounds tested against Cdk9/cyclinT1 (Homo sapiens, UniProt P50750) (assay: Cdk9/cyclinT1 IMAP Protocol (fluorescence polarization kinase assay)). Details: Cdk9_cyclinT1_IC50, Table V; generated using one of the two Cdk9/cyclinT1 assays (IMAP or Alpha Screen), not stated which; ATP 6 uM.
Chain of Cdk9/cyclinT1 (P50750 whole entry): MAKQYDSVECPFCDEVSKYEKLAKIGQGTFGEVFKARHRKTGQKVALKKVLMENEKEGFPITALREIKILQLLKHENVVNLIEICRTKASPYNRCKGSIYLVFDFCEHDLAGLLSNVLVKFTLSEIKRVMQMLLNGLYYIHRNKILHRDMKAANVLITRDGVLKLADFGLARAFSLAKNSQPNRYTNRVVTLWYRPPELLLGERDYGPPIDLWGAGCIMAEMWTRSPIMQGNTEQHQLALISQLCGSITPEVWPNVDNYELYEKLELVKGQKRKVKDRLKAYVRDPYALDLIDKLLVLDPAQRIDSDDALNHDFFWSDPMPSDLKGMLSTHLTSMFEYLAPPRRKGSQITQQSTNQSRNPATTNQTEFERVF
Chain of Cdk9/cyclinT1 (O60563 whole entry partner): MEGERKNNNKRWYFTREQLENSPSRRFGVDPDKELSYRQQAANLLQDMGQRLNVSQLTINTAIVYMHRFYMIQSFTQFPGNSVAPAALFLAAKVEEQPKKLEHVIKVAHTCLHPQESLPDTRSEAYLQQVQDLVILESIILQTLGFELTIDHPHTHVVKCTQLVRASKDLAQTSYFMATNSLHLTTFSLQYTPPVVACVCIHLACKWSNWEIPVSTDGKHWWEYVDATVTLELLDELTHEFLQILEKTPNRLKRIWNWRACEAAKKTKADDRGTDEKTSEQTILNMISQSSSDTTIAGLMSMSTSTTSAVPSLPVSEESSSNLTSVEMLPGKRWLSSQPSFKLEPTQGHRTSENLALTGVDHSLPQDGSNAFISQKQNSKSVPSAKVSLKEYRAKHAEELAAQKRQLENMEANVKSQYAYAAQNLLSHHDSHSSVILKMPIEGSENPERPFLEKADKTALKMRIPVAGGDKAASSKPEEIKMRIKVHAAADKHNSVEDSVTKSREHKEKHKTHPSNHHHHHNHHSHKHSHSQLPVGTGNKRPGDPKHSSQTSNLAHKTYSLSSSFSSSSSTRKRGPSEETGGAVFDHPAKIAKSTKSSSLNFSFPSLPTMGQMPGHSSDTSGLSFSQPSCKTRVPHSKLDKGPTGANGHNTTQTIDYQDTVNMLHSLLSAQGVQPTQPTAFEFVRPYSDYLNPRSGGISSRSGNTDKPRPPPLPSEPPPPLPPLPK

`CS(=O)(=O)N[C@H]1CC[C@@H](C(=O)Nc2cc(-c3nc(NCC4CCOCC4)ccc3Cl)c(Cl)cn2)C1` [Example 110, (1R,3S)-3-Methanesulfonylamino-cyclopentanecarboxylic acid {3,5′-dichloro-6-[(tetrahydro-pyran-4-ylmethyl)-amino]-[2,4′]bipyridinyl-2′-yl}-amide] and `CCS(=O)(=O)N[C@@H]1CC[C@H](C(=O)Nc2cc(-c3nc(NCC4CCOCC4)ccc3Cl)c(Cl)cn2)C1` [Example 113, (1S,3R)-3-Ethanesulfonylamino-cyclopentanecarboxylic acid {3,5′-dichloro-6-[(tetrahydro-pyran-4-ylmethyl)-amino]-[2,4′]bipyridinyl-2′-yl}-amide] cannot be ordered by IC50: under 8 nM for the first, under 8 nM for the second.

`CCS(=O)(=O)N1CCC[C@H](C(=O)Nc2cc(-c3nc(NCC4CCOCC4)ccc3Cl)c(Cl)cn2)C1` [Example 111, (S)-1-Ethanesulfonyl-piperidine-3-carboxylic acid {3,5′-dichloro-6-[(tetrahydro-pyran-4-ylmethyl)-amino]-[2,4′]bipyridinyl-2′-yl}-amide] and `CC(C)S(=O)(=O)N1CCC[C@H](C(=O)Nc2cc(-c3nc(NCC4CCOCC4)ccc3Cl)c(Cl)cn2)C1` [Example 112, (S)-1-(Propane-2-sulfonyl)-piperidine-3-carboxylic acid {3,5′-dichloro-6-[(tetrahydro-pyran-4-ylmethyl)-amino]-[2,4′]bipyridinyl-2′-yl}-amide] cannot be ordered by IC50: under 8 nM for the first, under 8 nM for the second.

`CC(C)S(=O)(=O)N[C@@H]1CC[C@H](C(=O)Nc2cc(-c3nc(NCC4CCOCC4)ccc3Cl)c(Cl)cn2)C1` [Example 114, (1S,3R)-3-(Propane-2-sulfonylamino)-cyclopentanecarboxylic acid {3,5′-dichloro-6-[(tetrahydro-pyran-4-ylmethyl)-amino]-[2,4′]bipyridinyl-2′-yl}-amide] and `CO[C@H]1CNC[C@@H]1C(=O)Nc1cc(-c2nc(NCC3CCOCC3)ccc2Cl)c(Cl)cn1` [Example 150, (3S,4R)-4-Methoxy-pyrrolidine-3-carboxylic acid {3,5′-dichloro-6-[(tetrahydro-pyran-4-ylmethyl)-amino]-[2,4′]bipyridinyl-2′-yl}-amide] cannot be ordered by IC50: under 8 nM for the first, under 8 nM for the second.

Compared with `O=C(Nc1cc(-c2cccc(NCC3CCOCC3)n2)c(Cl)cn1)C1CNC1` [Example 119, Azetidine-3-carboxylic acid {5′-chloro-6-[(tetrahydro-pyran-4-ylmethyl)-amino]-[2,4′]bipyridinyl-2′-yl}-amide], `O=C(Nc1cc(-c2cccc(NCC3CCOCC3)n2)c(Cl)cn1)[C@H]1CNC[C@H]1O` [Example 121, (3S,4S)-4-hydroxy-pyrrolidine-3-carboxylic acid {5′-chloro-6-[(tetrahydro-pyran-4-ylmethyl)-amino]-[2,4′]bipyridinyl-2′-yl}-amide] is 9.6-fold higher in IC50: 14 nM for the first, 134 nM for the second. The first is the more potent here.

`CC1(C)CC(CNc2cccc(-c3cc(NC(=O)[C@H]4CNCCO4)ncc3Cl)n2)CCO1` (stereo partly drawn) [Example 120, (R)-Morpholine-2-carboxylic acid {5′-chloro-6-[(2,2-dimethyl-tetrahydro-pyran-4-ylmethyl)-amino]-[2,4′]bipyridinyl-2′-yl}-amide] and `CC1(C)CC(CNc2ccc(Cl)c(-c3cc(NC(=O)[C@H]4CNCCO4)ncc3Cl)n2)CCO1` (stereo partly drawn) [Example 133, (R)-Morpholine-2-carboxylic acid {3,5′-dichloro-6-[(2,2-dimethyl-tetrahydro-pyran-4-ylmethyl)-amino]-[2,4′]bipyridinyl-2′-yl}-amide] cannot be ordered by IC50: under 8 nM for the first, under 8 nM for the second.

First: O=C(Nc1cc(-c2cccc(NCC3CCOCC3)n2)c(Cl)cn1)[C@H]1CNC[C@@H]1O [Example 122, (3S,4R)-4-Hydroxy-pyrrolidine-3-carboxylic acid {5′-chloro-6-[(tetrahydro-pyran-4-ylmethyl)-amino]-[2,4′]bipyridinyl-2′-yl}-amide]
Second: CO[C@H]1CNC[C@@H]1C(=O)Nc1cc(-c2cccc(NCC3CCOCC3)n2)c(Cl)cn1 [Example 138, (3S,4R)-4-Methoxy-pyrrolidine-3-carboxylic acid {5′-chloro-6-[(tetrahydro-pyran-4-ylmethyl)-amino]-[2,4′]bipyridinyl-2′-yl}-amide]
The IC50 of the first is higher: 15 nM for the first, under 8 nM for the second.

`O=C(Nc1cc(-c2nc(NCC3CCOCC3)ccc2Cl)c(F)cn1)[C@@H]1CCCNC1` [Example 123, (R)-Piperidine-3-carboxylic acid {3-chloro-5′-fluoro-6-[(tetrahydro-pyran-4-ylmethyl)-amino]-[2,4′]bipyridinyl-2′-yl}-amide] and `O=C(Nc1cc(-c2nc(NCC3CCOCC3)ccc2F)c(Cl)cn1)[C@@H]1CCCNC1` [Example 157, (R)-Piperidine-3-carboxylic acid {5′-chloro-3-fluoro-6-[(tetrahydro-pyran-4-ylmethyl)-amino]-[2,4′]bipyridinyl-2′-yl}-amide] cannot be ordered by IC50: under 8 nM for the first, 1 nM for the second.

First: O=C(Nc1cc(-c2nc(NCC3CCOCC3)ccc2Cl)c(F)cn1)[C@H]1CNCCO1 [Example 124, (R)-Morpholine-2-carboxylic acid {3-chloro-5′-fluoro-6-[(tetrahydro-pyran-4-ylmethyl)-amino]-[2,4′]bipyridinyl-2′-yl}-amide]
Second: O=C(Nc1cc(-c2ccc(F)c(NCC3CCOCC3)n2)c(Cl)cn1)[C@@H]1CCNC1 [Example 143, (R)-Pyrrolidine-3-carboxylic acid {5′-chloro-5-fluoro-6-[(tetrahydro-pyran-4-ylmethyl)-amino]-[2,4′]bipyridinyl-2′-yl}-amide]
The IC50 of the first is 30-fold higher: 30 nM for the first, 1 nM for the second. The second is the more potent here.

`CC1(C)CC(CNc2ccc(Cl)c(-c3cc(NC(=O)[C@@H]4CCCNC4)ncc3Cl)n2)CCO1` (stereo partly drawn) [Example 132, (R)-Piperidine-3-carboxylic acid {3,5′-dichloro-6-[(2,2-dimethyl-tetrahydro-pyran-4-ylmethyl)-amino]-[2,4′]bipyridinyl-2′-yl}-amide] and `COC(=O)N1CCC[C@H](C(=O)Nc2cc(-c3nc(NCC4CCOC(C)(C)C4)ccc3Cl)c(Cl)cn2)C1` (stereo partly drawn) [Example 140, (S)-3-{3,5′-Dichloro-6-[(2,2-dimethyl-tetrahydro-pyran-4-ylmethyl)-amino]-[2,4′]bipyridinyl-2′-ylcarbamoyl}-piperidine-1-carboxylic acid methyl ester] cannot be ordered by IC50: under 8 nM for the first, under 8 nM for the second.

`O=C(Nc1cc(-c2nc(NCC3CCOCC3)c(Cl)cc2Cl)c(Cl)cn1)[C@@H]1CCCNC1` [Example 134, (R)-Piperidine-3-carboxylic acid {3,5,5′-trichloro-6-[(tetrahydro-pyran-4-ylmethyl)-amino]-[2,4′]bipyridinyl-2′-yl}-amide] and `O=C(Nc1cc(-c2ccc(F)c(NCC3CCOCC3)n2)c(Cl)cn1)[C@@H]1CCCNC1` [Example 135, (R)-Piperidine-3-carboxylic acid {5′-chloro-5-fluoro-6-[(tetrahydro-pyran-4-ylmethyl)-amino]-[2,4′]bipyridinyl-2′-yl}-amide] cannot be ordered by IC50: under 8 nM for the first, 1 nM for the second.

`C[C@H](Nc1cccc(-c2cc(NC(=O)[C@@H]3CCCNC3)ncc2Cl)n1)C1CCOCC1` [Example 136, (R)-Piperidine-3-carboxylic acid {5′-chloro-6-[(S)-1-(tetrahydro-pyran-4-yl)-ethylamino]-[2,4′]bipyridinyl-2′-yl}-amide] and `C[C@@H](Nc1cccc(-c2cc(NC(=O)[C@@H]3CCCNC3)ncc2Cl)n1)C1CCOCC1` [Example 137, (R)-Piperidine-3-carboxylic acid {5′-chloro-6-[(R)-1-(tetrahydro-pyran-4-yl)-ethylamino]-[2,4′]bipyridinyl-2′-yl}-amide] are within 1.5-fold of each other in IC50: 13 nM for the first, 11 nM for the second.

Compared with `CC(C)S(=O)(=O)N1CCC[C@H](C(=O)Nc2cc(-c3nc(NCC4CCOC(C)(C)C4)ccc3Cl)c(Cl)cn2)C1` (stereo partly drawn) [Example 139, (S)-1-(Propane-2-sulfonyl)-piperidine-3-carboxylic acid {3,5′-dichloro-6-[(2,2-dimethyl-tetrahydro-pyran-4-ylmethyl)-amino]-[2,4′]bipyridinyl-2′-yl}-amide], `COC(=O)N1CCC[C@H](C(=O)Nc2cc(-c3nc(N[C@H](C)C4CCOCC4)ccc3Cl)c(Cl)cn2)C1` [Example 153, (S)-3-{3,5′-Dichloro-6-[(R)-1-(tetrahydro-pyran-4-yl)-ethylamino]-[2,4′]bipyridinyl-2′-ylcarbamoyl}-piperidine-1-carboxylic acid methyl ester] is higher in IC50: under 8 nM for the first, 26 nM for the second.

`CO[C@H]1CNC[C@@H]1C(=O)Nc1cc(-c2ccc(F)c(NCC3CCOCC3)n2)c(Cl)cn1` [Example 144, (3S,4R)-4-Methoxy-pyrrolidine-3-carboxylic acid {5′-chloro-5-fluoro-6-[(tetrahydro-pyran-4-ylmethyl)-amino]-[2,4′]bipyridinyl-2′-yl}-amide] and `CO[C@H]1CNC[C@@H]1C(=O)Nc1cc(-c2cccc(NCC3CCOC(C)(C)C3)n2)c(Cl)cn1` (stereo partly drawn) [Example 151, (3S,4R)-4-Methoxy-pyrrolidine-3-carboxylic acid {5′-chloro-6-[(2,2-dimethyl-tetrahydro-pyran-4-ylmethyl)-amino]-[2,4′]bipyridinyl-2′-yl}-amide] cannot be ordered by IC50: 1 nM for the first, under 8 nM for the second.

Going from `CC1(C(=O)Nc2cc(-c3cccc(NCC4CCOCC4)n3)c(Cl)cn2)CNCCO1` (centres unmarked) [Example 145, 2-Methyl-morpholine-2-carboxylic acid {5′-chloro-6-[(tetrahydro-pyran-4-ylmethyl)-amino]-[2,4′]bipyridinyl-2′-yl}-amide] to `COC(=O)N1CCC[C@H](C(=O)Nc2cc(-c3cccc(NCC4CCS(=O)(=O)CC4)n3)c(Cl)cn2)C1` [Example 152, (S)-3-{5′-Chloro-6-[(1′,1′-dioxo-hexahydro-1-thiopyran-4-ylmethyl)-amino]-[2,4′]bipyridinyl-2′-ylcarbamoyl}-piperidine-1-carboxylic acid methyl ester], the IC50 falls from 785 nM to under 8 nM. The second is the more potent here.

Work on `COC(=O)N1CCC[C@H](C(=O)Nc2cc(-c3nc(N[C@@H](C)C4CCOCC4)ccc3Cl)c(Cl)cn2)C1` [Example 154, (S)-3-{3,5′-Dichloro-6-[(S)-1-(tetrahydro-pyran-4-yl)-ethylamino]-[2,4′]bipyridinyl-2′-ylcarbamoyl}-piperidine-1-carboxylic acid methyl ester] yielded an IC50 of 15 nM.

Reference: patent publication US20110130380A1, “Heteroaryl Kinase Inhibitors” (priority 2009, published 2011)
